Measured values as given in US20230019491A1, “PYRIMIDINE TBK/IKKe INHIBITOR COMPOUNDS AND USES THEREOF” (Merck Patent GmbH, priority 2017, published 2023).

Key:
TBK1 = biological target: T1, TBK1 (Homo sapiens, UniProt Q9UHD2); assay: TBK biochemical assay; conditions: 10 point 1:4 dose response, 30 uM top concentration, 90 min at 25° C., LabChip EZ Reader II; read-out: TBK1_IC50
T1 sequence (Q9UHD2 1-729): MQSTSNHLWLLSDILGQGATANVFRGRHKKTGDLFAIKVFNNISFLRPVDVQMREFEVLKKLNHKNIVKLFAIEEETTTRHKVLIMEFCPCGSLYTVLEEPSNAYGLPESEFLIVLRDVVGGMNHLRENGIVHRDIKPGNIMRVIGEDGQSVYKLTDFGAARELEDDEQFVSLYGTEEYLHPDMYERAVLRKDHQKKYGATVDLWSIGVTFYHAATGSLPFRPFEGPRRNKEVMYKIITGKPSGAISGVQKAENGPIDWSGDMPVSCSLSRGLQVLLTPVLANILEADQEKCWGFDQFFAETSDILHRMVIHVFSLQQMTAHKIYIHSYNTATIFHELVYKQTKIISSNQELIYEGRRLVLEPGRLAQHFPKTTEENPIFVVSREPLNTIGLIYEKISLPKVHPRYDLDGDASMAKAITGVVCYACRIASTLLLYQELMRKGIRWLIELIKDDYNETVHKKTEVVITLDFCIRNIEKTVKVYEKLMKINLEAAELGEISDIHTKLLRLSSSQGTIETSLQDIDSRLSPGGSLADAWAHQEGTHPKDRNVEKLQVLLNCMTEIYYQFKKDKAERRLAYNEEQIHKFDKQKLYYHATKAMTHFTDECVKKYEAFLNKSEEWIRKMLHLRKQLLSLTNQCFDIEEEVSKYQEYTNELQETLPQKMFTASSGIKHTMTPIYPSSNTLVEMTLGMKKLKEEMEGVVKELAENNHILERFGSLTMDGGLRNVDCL
How it was run: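 Substrate and product were separated and quantified by microfluidic mobility-shift read (LabChip). 10 uM staurosporine served as the full-inhibition control, and the reference compound was tested from 1 uM final.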

IKKε = biological target: T2, IKKε (Homo sapiens, UniProt Q14164); assay: IKKε biochemical assay; conditions: 10 point 1:4 dose response, 30 uM top concentration, 90 min at 25° C., LabChip EZ Reader II; read-out: IKKε_IC50
T2 sequence (Q14164 1-716): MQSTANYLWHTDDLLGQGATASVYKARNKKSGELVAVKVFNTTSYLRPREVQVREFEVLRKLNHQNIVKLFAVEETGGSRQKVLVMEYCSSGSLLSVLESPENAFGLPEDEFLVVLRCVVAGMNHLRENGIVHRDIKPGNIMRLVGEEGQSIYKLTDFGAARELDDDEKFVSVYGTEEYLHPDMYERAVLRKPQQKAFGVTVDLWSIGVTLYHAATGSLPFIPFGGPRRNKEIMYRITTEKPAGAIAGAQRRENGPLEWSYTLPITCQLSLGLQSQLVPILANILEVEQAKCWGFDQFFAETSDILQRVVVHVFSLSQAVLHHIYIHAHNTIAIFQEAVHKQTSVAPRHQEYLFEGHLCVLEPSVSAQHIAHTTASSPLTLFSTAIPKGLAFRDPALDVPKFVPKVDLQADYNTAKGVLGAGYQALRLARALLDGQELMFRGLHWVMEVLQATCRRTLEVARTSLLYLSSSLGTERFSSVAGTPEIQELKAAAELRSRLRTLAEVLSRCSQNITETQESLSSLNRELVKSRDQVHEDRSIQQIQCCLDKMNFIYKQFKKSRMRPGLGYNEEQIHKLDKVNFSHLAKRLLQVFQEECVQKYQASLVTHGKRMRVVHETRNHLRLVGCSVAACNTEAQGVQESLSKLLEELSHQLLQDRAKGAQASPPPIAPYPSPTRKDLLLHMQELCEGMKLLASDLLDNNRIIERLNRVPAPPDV
How it was run: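 Compounds in 1% DMSO final were incubated with IKKε enzyme and substrate at 25° C. for 90 min, then stopped. Substrate and product peaks were resolved by LabChip EZ Reader II mobility-shift read-out. Staurosporine at 10 uM final served as the full-inhibition control.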

| IC50 (TBK1) [nM] | IC50 (IKKε) [nM] | Compound |
| --- | --- | --- |
| < 100 | < 100 | COc1nc(Nc2nccc(-c3ccc(N4CC5(CCN(C(=O)[C@H](C)O)CC5)C4)c(C#N)c3)n2)ccc1N1CCN(C2COC2)CC1 [Example 314, 2-[7-((S)-2-Hydroxy-propionyl)-2,7-diaza-spiro[3.5]non-2-yl]-5-{2-[6-methoxy-5-(4-oxetan-3-yl-piperazin-1-yl)-pyridin-2-ylamino]-pyrimidin-4-yl}-benzonitrile] |
| < 100 | < 100 | COc1nc(Nc2nccc(-c3ccc(N4CC5(CCN(C(=O)[C@@H](O)CO)CC5)C4)c(C#N)c3)n2)ccc1N1CCN(C2COC2)CC1 [Example 315, 2-[7-((S)-2,3-Dihydroxy-propionyl)-2,7-diaza-spiro[3.5]non-2-yl]-5-{2-[6-methoxy-5-(4-oxetan-3-yl-piperazin-1-yl)-pyridin-2-ylamino]-pyrimidin-4-yl}-benzonitrile] |
| < 100 | < 100 | COc1nc(Nc2nccc(-c3ccc(N4CCC5(CC4)CN(C(=O)[C@H](C)O)C5)c(C#N)c3)n2)ccc1N1CCN(C2COC2)CC1 [Example 316, 2-[2-((S)-2-Hydroxy-propionyl)-2,7-diaza-spiro[3.5]non-7-yl]-5-{2-[6-methoxy-5-(4-oxetan-3-yl-piperazin-1-yl)-pyridin-2-ylamino]-pyrimidin-4-yl}-benzonitrile] |
| 100 to 1000 | 100 to 1000 | COc1cc(Nc2nccc(-c3ccc(OC4CCN(C(=O)[C@H](C)O)CC4)c(C#N)c3)n2)ncc1N1CCN(C2COC2)CC1 [Example 318, 2-([1-[(2S)-2-hydroxypropanoyl]piperidin-4-yl]oxy)-5-[2-([4-methoxy-5-[4-(oxetan-3-yl)piperazin-1-yl]pyridin-2-yl]amino)pyrimidin-4-yl]benzonitrile] |
| 1000 to 5000 | 100 to 1000 | COc1cc(Nc2nccc(-c3ccc(OC4CCN(C(=O)[C@@H](C)O)CC4)c(C#N)c3)n2)ncc1N1CCN(C2COC2)CC1 [Example 319, 2-([1-[(2R)-2-hydroxypropanoyl]piperidin-4-yl]oxy)-5-[2-([4-methoxy-5-[4-(oxetan-3-yl)piperazin-1-yl]pyridin-2-yl]amino)pyrimidin-4-yl]benzonitrile] |
| < 100 | < 100 | COc1cc(Nc2nccc(-c3ccc(OC4CCN(C(=O)[C@@H](C)O)CC4)c(C#N)c3)n2)cnc1N1CCN(C2COC2)CC1 [Example 321, 2-([1-[(2R)-2-hydroxypropanoyl]piperidin-4-yl]oxy)-5-[2-([5-methoxy-6-[4-(oxetan-3-yl)piperazin-1-yl]pyridin-3-yl]amino)pyrimidin-4-yl]benzonitrile] |
| < 100 | < 100 | COc1cc(Nc2nccc(-c3ccc(OC4CCN(C(=O)[C@H](C)O)CC4(F)F)c(C#N)c3)n2)ncc1N1CCN(C2COC2)CC1 (stereo partly drawn) [Example 322, 2-([33-difluoro-1-[(2S)-2-hydroxypropanoyl]piperidin-4-yl]oxy)-5-[2-([4-methoxy-5-[4-(oxetan-3-yl)piperazin-1-yl]pyridin-2-yl]amino)pyrimidin-4-yl]benzonitrile] |
| < 100 | < 100 | COc1cc(Nc2nccc(-c3ccc(OC4CCN(C(=O)[C@H](C)O)CC4(F)F)c(C#N)c3)n2)cnc1N1CCN(C2COC2)CC1 (stereo partly drawn) [Example 323, 2-([3,3-difluoro-1-[(2S)-2-hydroxypropanoyl]piperidin-4-yl]oxy)-5-[2-([5-methoxy-6-[4-(oxetan-3-yl)piperazin-1-yl]pyridin-3-yl]amino)pyrimidin-4-yl]benzonitrile] |
| < 100 | < 100 | COc1nc(Nc2nccc(-c3ccc(OC4CCN(C(=O)[C@H](C)O)CC4(F)F)c(C#N)c3)n2)ccc1C(=O)N(C)C (stereo partly drawn) [Example 324, 6-([4-[3-cyano-4-([3,3-difluoro-1-[(2S)-2-hydroxypropanoyl]piperidin-4-yl]oxy)phenyl]pyrimidin-2-yl]amino)-2-methoxy-N,N-dimethylpyridine-3-carboxamide] |
| < 100 | < 100 | COc1nc(Nc2nccc(-c3ccc(OC4CCN(C(=O)[C@@H](C)O)CC4(F)F)c(C#N)c3)n2)ccc1C(=O)N(C)C (stereo partly drawn) [Example 325, 6-([4-[3-cyano-4-([3,3-difluoro-1-[(2R)-2-hydroxypropanoyl]piperidin-4-yl]oxy)phenyl]pyrimidin-2-yl]amino)-2-methoxy-N,N-dimethylpyridine-3-carboxamide] |
| < 100 | < 100 | COc1cc(Nc2nccc(-c3ccc(OC4CCN(C(=O)CO)CC4(F)F)c(C#N)c3)n2)ccn1 (centres unmarked) [Example 326, 2-[[3,3-difluoro-1-(2-hydroxyacetyl)piperidin-4-yl]oxy]-5-[2-[(2-methoxypyridin-4-yl)amino]pyrimidin-4-yl]benzonitrile] |
| < 100 | < 100 | COc1nc(Nc2nccc(-c3ccc(OC4CCN(C(=O)C(C)O)CC4(F)F)c(C#N)c3)n2)ccc1C1CCN(C2COC2)CC1 (centres unmarked) [Example 329, 2-[[33-difluoro-1-(2-hydroxypropanoyl)piperidin-4-yl]oxy]-5-[2-([6-methoxy-5-[1-(oxetan-3-yl)piperidin-4-yl]pyridin-2-yl]amino)pyrimidin-4-yl]benzonitrile] |
| < 100 | < 100 | COc1nc(Nc2nccc(-c3ccc(OC4CCN(C(=O)[C@@H](C)O)CC4(F)F)c(C#N)c3)n2)ccc1C1CCN(C2COC2)CC1 (stereo partly drawn) [Example 330, 2-([3,3-difluoro-1-[(2R)-2-hydroxypropanoyl]piperidin-4-yl]oxy)-5-[2-([6-methoxy-5-[1-(oxetan-3-yl)piperidin-4-yl]pyridin-2-yl]amino)pyrimidin-4-yl]benzonitrile] |
| < 100 | 100 to 1000 | COc1nc(Nc2nccc(-c3ccc(O[C@@H]4CCN(C(=O)[C@H](C)O)C[C@@H]4F)c(C#N)c3)n2)ccc1N1CCN(C2COC2)CC1 [Example 331, 2-[[(3S,4R)-3-fluoro-1-[(2S)-2-hydroxypropanoyl]piperidin-4-yl]oxy]-5-[2-([6-methoxy-5-[4-(oxetan-3-yl)piperazin-1-yl]pyridin-2-yl]amino)pyrimidin-4-yl]benzonitrile] |

| Compound | IC50 (TBK1) [nM] | IC50 (IKKε) [nM] |
| --- | --- | --- |
| COc1cc(Nc2nccc(-c3ccc(OC4CCN(C(=O)[C@H](C)O)CC4)c(C#N)c3)n2)cnc1N1CCN(C2COC2)CC1 [Example 320, 2-([1-[(2S)-2-hydroxypropanoyl]piperidin-4-yl]oxy)-5-[2-([5-methoxy-6-[4-(oxetan-3-yl)piperazin-1-yl]pyridin-3-yl]amino)pyrimidin-4-yl]benzonitrile] | < 100 | < 100 |
| tert-butyl 4-[2-cyano-5-methyl-4-[2-([4-[4-(oxetan-3-yl)piperazin-1-yl]phenyl]amino)pyrimidin-4-yl]phenoxy]-3,3-difluoropiperidine-1-carboxylate [Example 308] | < 100 | < 100 |
